Measured values published in patent US10501493B2, “Broad spectrum antibiotics” (priority 2011, dated 2019).
In brackets after ≈: the same amount, converted by molar mass. Like-named read-outs stand apart in the source and are kept apart here.

Experiments:
C. glutamicum DSM 44475 = test: In vitro antimicrobial activity, MIC by broth micro-dilution; assay type: cell-based; settings: Corynebacterium glutamicum, DSM44475, read-out: MIC
[1] = system: E. coli MIG1655 LepB(P84L); test: as above; assay type: cell-based; settings: Escherichia coli
In short: (§1)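 CLSI broth micro-dilution MIC against two-fold serial compound dilutions. Inoculum came from colonies grown 24 h at 35° C. or 28° C., suspended in cation-adjusted Mueller Hinton broth at 1*10^7 CFU/ml, of which 5 μl was added per 100 μl well. LepB(P84L) is a proline-mutant SPase strain with heightened arylomycin susceptibility.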

[2] = system: P. aeruginosa PA01 LepB(P84L); test: as above; assay type: cell-based; settings: Pseudomonas aeruginosa
In short: as §1

S. agalactiae ATCC 13813 = test: as above; assay type: cell-based; settings: Streptococcus agalactiae, ATCC13813, read-out: MIC
S. agalactiae COH-1 = test: as above; assay type: cell-based; settings: Streptococcus agalactiae, COH1
S. aureus ATCC 29213 = test: as above; assay type: cell-based; settings: Staphylococcus aureus, ATCC29213, read-out: MIC
[3] = system: S. aureus NCTC-8325 SpsB(P295); test: as above; assay type: cell-based; settings: Staphylococcus aureus, NCTC8325
[4] = system: S. epidermidis ATCC 12228; test: as above; assay type: cell-based; settings: Staphylococcus epidermidis, ATCC12228, read-out: MIC
[5] = system: S. epidermidis RP62A SpsIB(S29P); test: as above; assay type: cell-based; settings: Staphylococcus epidermidis
[6] = system: S. epidermidis RP62A SpsIB(S31P); test: as above; assay type: cell-based; settings: Staphylococcus epidermidis
S. epidermidis RP62A = test: as above; assay type: cell-based; settings: Staphylococcus epidermidis; S. epidermidis RP62A; read-out: MIC
S. pneumoniae D39 = test: as above; assay type: cell-based; settings: Streptococcus pneumoniae; S. pneumoniae D39; read-out: MIC
S. pneumoniae R800 = test: as above; assay type: cell-based; settings: Streptococcus pneumoniae, read-out: MIC
In short: as §1

S. pyogenes ATCC 19615 = test: as above; assay type: cell-based; settings: Streptococcus pyogenes, ATCC19615, read-out: MIC
S. pyogenes M15448 = test: as above; assay type: cell-based; settings: Streptococcus pyogenes
In short: as §1

E. coli SPase = target: T1, E. coli SPase (Escherichia coli, UniProt P00803); test: Steady state binding constant (Kd) determination by fluorescence increase
T1 construct: Full length His-tagged E. coli SPase proteins were expressed in E. coli BL21(DE3); His-tag; made in house; host or cells: E. coli BL21(DE3)
Method: (§2) Full length His-tagged E. coli SPase proteins were expressed in E. coli BL21(DE3) containing the plasmid pET23-lepB, P. A. Smith et al. Chem Biol 2010, 1223-1231. Briefly, saturated overnight cultures grown in 20 ml of Luria-Bertani medium supplemented with ampicillin were subcultures into 1.5 L of Luria-Bertani, and shaken at 37° C. until an optical density at 600 nm of 0.4-0.5 was achieved. Protein expression was induced with Isopropyl β-D-1-thiogalactopyranoside (ITPG) at a final concentration of […], and purified using nickel affinity chromatography. Full length His-tagged S. aureus SPase protein was expressed similarly from E. coli BL21(DE3) containing the plasmid pCDF1-SaSpsB or pCDF1-SaSpsB(P29S) and purified similarly to the E. coli protein with the following exceptions. SPase protein was solubilized using 300 mM NaCl, 20 mM Tris pH 8.06, 5 mM Imidazole, 10% glycerol, 1% Triton X-100, prior to purification in Ni-NTA Superflow resin and resin bound protein was washed in a similar buffer containing 1% Elugent in place of Triton X-100 prior to protein eluted in wash buffer supplemented with 300 mM imidazole. Protein purify was judged to exceed 95% by visual inspection of SDS-PAGE followed by Comassie staining. All protein concentrations were determined by BCA assay.
(§3) Steady state binding constants (Kds) of compounds were determined by measuring an increase in fluorescence (λex=280 nm, λem=405 nm) that occurs upon binding to E. coli or S. aureus SPase protein. Two-fold serial dilutions of compounds were prepared in 100% DMSO, and compounds were diluted into binding buffer consisting of 100 mM NaCl, 20 mM Tris-HCl pH 7.4, 1 mM EDTA, 1% n-octyl-3-glucopyranoside (Anatrace), and 10% glycerol, with the final DMSO concentration equal to 1%. 70 μl of the resulting solutions containing various concentrations of compound in binding buffer were aliquoted into triplicate wells of a black polystyrene 384-well plate. 5 μl of blank solution or E. coli or S. aureus protein at concentrations of 750 or 3750 nM respectively, were added to each set of wells for a given inhibitor concentration. Plates were incubated for 14 hours and fluorescence read on an EnVision Multilable plate reader (Perkin Elmer™). Differences in fluorescence values between wells with and without protein were determined and background corrected for protein auto fluorescence. The corrected fluorescence difference data was fit to the quadratic equilibrium binding curve using the non-linear regression analysis software Solver (Frontline Systems®) run in Excel 2010, (Microsoft®), using experimentally determined quantum efficiency constants to convert fluorescence into nanomoles of protein/compound complex.

S. aureus SPase = target: T2, S. aureus SPase (Staphylococcus aureus, UniProt P0A070); test: as above
T2 construct: Full length His-tagged S. aureus SPase protein was expressed similarly; His-tag; made in house; host or cells: E. coli BL21(DE3)
Method: as §2, §3

[7] = S. agalactiae COH-1, read-out: MIC
[8] = S. pyogenes M15448, read-out: MIC

## CCCCCCCCCCCCCCCC(=O)N(C)[C@H](CO)C(=O)N[C@H](C)C(=O)NCC(=O)N(C)[C@@H]1C(=O)N[C@@H](C)C(=O)N[C@H](C(=O)N[C@@H](C)C(=O)O)Cc2ccc(O)c(c2)-c2cc1ccc2O [Compound 20]
C. glutamicum DSM 44475
  MIC: 64 µg/mL (≈ 67.2 µM)
[1]
  MIC: 32 µg/mL (≈ 33.6 µM)
[2]
  MIC: > 64 µg/mL
S. agalactiae ATCC 13813
  MIC: 32 µg/mL (≈ 33.6 µM)
S. agalactiae COH-1; [7]
  MIC: > 64 µg/mL
S. aureus ATCC 29213
  MIC: > 64 µg/mL
[3]
  MIC: > 64 µg/mL
[4]
  MIC: 32 µg/mL (≈ 33.6 µM)
[5]
  MIC: 32 µg/mL (≈ 33.6 µM)
[6]
  MIC: > 64 µg/mL
S. epidermidis RP62A
  MIC: 4 µg/mL (≈ 4.2 µM)
S. pneumoniae D39
  MIC: 16 µg/mL (≈ 16.8 µM)
S. pneumoniae R800
  MIC: 32 µg/mL (≈ 33.6 µM)
S. pyogenes ATCC 19615
  MIC: 32 µg/mL (≈ 33.6 µM)
S. pyogenes M15448; [8]
  MIC: 64 µg/mL (≈ 67.2 µM)
E. coli SPase
  Kd: 12000 nM
S. aureus SPase
  Kd: 7800 nM

## CCCCCCCCCCCCCCCC(=O)N(C)[C@H](CO)C(=O)N[C@H](C)C(=O)NCC(=O)N(C)[C@@H]1C(=O)N[C@@H](C)C(=O)N[C@H](C(=O)N[C@H](C)C(=O)O)Cc2ccc(O)c(c2)-c2cc1ccc2O [Compound 19]
C. glutamicum DSM 44475
  MIC: 16 µg/mL (≈ 16.8 µM)
[1]
  MIC: 8 µg/mL (≈ 8.4 µM)
[2]
  MIC: > 64 µg/mL
S. agalactiae ATCC 13813
  MIC: 32 µg/mL (≈ 33.6 µM)
S. agalactiae COH-1
  MIC: > 64 µg/mL
S. aureus ATCC 29213
  MIC: > 64 µg/mL
[3]
  MIC: > 64 µg/mL
[4]
  MIC: 32 µg/mL (≈ 33.6 µM)
[5]
  MIC: > 64 µg/mL
[6]
  MIC: > 64 µg/mL
S. epidermidis RP62A
  MIC: 8 µg/mL (≈ 8.4 µM)
S. pneumoniae D39
  MIC: 16 µg/mL (≈ 16.8 µM)
S. pneumoniae R800
  MIC: 32 µg/mL (≈ 33.6 µM)
S. pyogenes ATCC 19615
  MIC: 16 µg/mL (≈ 16.8 µM)
S. pyogenes M15448; M15448
  MIC: 32 µg/mL (≈ 33.6 µM)
E. coli SPase
  Kd: 2800 nM
S. aureus SPase
  Kd: 18000 nM

## CCCCCCCCCCCCCCCC(=O)N(C)[C@H](CO)C(=O)N[C@H](C)C(=O)NCC(=O)N(C)[C@@H]1C(=O)N[C@@H](C)C(=O)N[C@H](C(=O)N[C@@H](C)C(=O)N2CCCC2C(N)=O)Cc2ccc(O)c(c2)-c2cc1ccc2O (stereo partly drawn) [Compound 14]
[1]
  MIC: 16 µg/mL (≈ 15.3 µM)
[2]
  MIC: > 64 µg/mL
[3]
  MIC: 8 µg/mL (≈ 7.63 µM)
[5]
  MIC: > 64 µg/mL
[6]
  MIC: > 64 µg/mL
S. epidermidis RP62A
  MIC: 2 µg/mL (≈ 1.91 µM)
S. pneumoniae D39
  MIC: 8 µg/mL (≈ 7.63 µM)
E. coli SPase
  Kd: 2800 nM
S. aureus SPase
  Kd: 600 nM

## CCCCCCCCCCCCCCCC(=O)N(C)[C@H](CO)C(=O)N[C@H](C)C(=O)NCC(=O)N(C)[C@@H]1C(=O)N[C@@H](C)C(=O)N[C@H](C(=O)N(C)C)Cc2ccc(O)c(c2)-c2cc1ccc2O [Compound 13]
[1]
  MIC: 16 µg/mL (≈ 17.6 µM)
[2]
  MIC: > 64 µg/mL
[5]
  MIC: > 64 µg/mL
[6]
  MIC: > 64 µg/mL
S. epidermidis RP62A
  MIC: 64 µg/mL (≈ 70.5 µM)
S. pneumoniae D39
  MIC: > 64 µg/mL
E. coli SPase
  Kd: 2000 nM
S. aureus SPase
  Kd: > 100000 nM

## CCCCCCCCCCCCCCCC(=O)N(C)[C@H](CO)C(=O)N[C@H](C)C(=O)NCC(=O)N(C)[C@@H]1C(=O)N[C@@H](C)C(=O)N[C@H](C(=O)N[C@@H](C)C(N)=O)Cc2ccc(O)c(c2)-c2cc1ccc2O [Compound 15]
C. glutamicum DSM 44475
  MIC: > 64 µg/mL
[1]
  MIC: 8 µg/mL (≈ 8.41 µM)
[2]
  MIC: > 64 µg/mL
S. agalactiae ATCC 13813
  MIC: > 64 µg/mL
S. agalactiae COH-1; [7]
  MIC: > 64 µg/mL
S. aureus ATCC 29213
  MIC: > 64 µg/mL
[3]
  MIC: 8 µg/mL (≈ 8.41 µM)
[4]
  MIC: > 64 µg/mL
[5]
  MIC: > 64 µg/mL
[6]
  MIC: > 64 µg/mL
S. epidermidis RP62A
  MIC: 2 µg/mL (≈ 2.1 µM)
S. pneumoniae D39
  MIC: 8 µg/mL (≈ 8.41 µM)
S. pneumoniae R800
  MIC: 16 µg/mL (≈ 16.8 µM)
S. pyogenes ATCC 19615
  MIC: 16 µg/mL (≈ 16.8 µM)
S. pyogenes M15448; [8]
  MIC: 16 µg/mL (≈ 16.8 µM)
E. coli SPase
  Kd: 5800 nM
S. aureus SPase
  Kd: 2000 nM

## CCCCCCCCCCCCCCCC(=O)N(C)[C@H](CO)C(=O)N[C@H](C)C(=O)NCC(=O)N(C)[C@@H]1C(=O)N[C@@H](C)C(=O)N[C@H](C(N)=O)Cc2ccc(O)c(c2)-c2cc1ccc2O [Compound 11]
[1]
  MIC: 4 µg/mL (≈ 4.54 µM)
[2]
  MIC: > 64 µg/mL
[3]
  MIC: 32 µg/mL (≈ 36.4 µM)
[5]
  MIC: > 64 µg/mL
[6]
  MIC: > 64 µg/mL
S. epidermidis RP62A
  MIC: 2 µg/mL (≈ 2.27 µM)
S. pneumoniae D39
  MIC: 64 µg/mL (≈ 72.7 µM)
E. coli SPase
  Kd: 100 nM
S. aureus SPase
  Kd: 2100 nM

## CCCCCCCCCCCCCCCC(=O)N(C)[C@H](CO)C(=O)N[C@H](C)C(=O)NCC(=O)N(C)[C@@H]1C(=O)N[C@@H](C)C(=O)N[C@H](C(=O)NC)Cc2ccc(O)c(c2)-c2cc1ccc2O [Compound 12]
[1]
  MIC: 8 µg/mL (≈ 8.95 µM)
[2]
  MIC: > 64 µg/mL
[5]
  MIC: 64 µg/mL (≈ 71.6 µM)
[6]
  MIC: > 64 µg/mL
S. epidermidis RP62A
  MIC: 2 µg/mL (≈ 2.24 µM)
S. pneumoniae D39
  MIC: > 64 µg/mL
E. coli SPase
  Kd: 240 nM
S. aureus SPase
  Kd: 600 nM

## CCCCCCCCCCCCCCCC(=O)N(C)[C@H](CO)C(=O)N[C@H](C)C(=O)NCC(=O)N(C)[C@@H]1C(=O)N[C@@H](C)C(=O)N[C@H](C(=O)NS(C)(=O)=O)Cc2ccc(O)c(c2)-c2cc1ccc2O [Compound 22]
C. glutamicum DSM 44475
  MIC: 8 µg/mL (≈ 8.35 µM)
[1]
  MIC: 16 µg/mL (≈ 16.7 µM)
[2]
  MIC: > 64 µg/mL
S. agalactiae ATCC 13813
  MIC: 32 µg/mL (≈ 33.4 µM)
S. agalactiae COH-1
  MIC: > 64 µg/mL
S. aureus ATCC 29213
  MIC: > 64 µg/mL
[3]
  MIC: > 64 µg/mL
[4]
  MIC: > 64 µg/mL
[5]
  MIC: > 64 µg/mL
[6]
  MIC: > 64 µg/mL
S. epidermidis RP62A
  MIC: 2 µg/mL (≈ 2.09 µM)
S. pneumoniae D39
  MIC: 16 µg/mL (≈ 16.7 µM)
S. pneumoniae R800
  MIC: 16 µg/mL (≈ 16.7 µM)
S. pyogenes ATCC 19615
  MIC: 16 µg/mL (≈ 16.7 µM)
S. pyogenes M15448; M15448
  MIC: 16 µg/mL (≈ 16.7 µM)
E. coli SPase
  Kd: 1000 nM
S. aureus SPase
  Kd: 19000 nM
